Several values for one entry are separate records, joined by “and”; a condition that tells them apart may be missing. Equal values may be shown once. Entries after “also recorded” stand apart in the source; their conditions may differ. Each block holds one molecule with its values, some of them ahead of it.
Columns and labels:
SdKef = assay: Whole cell potassium efflux assay; format: cell-based, Shewanella denitrificans OS217; conditions: for K+ efflux (activation of Kef): E. coli MJF335 transformed with wild-type SdKef, grown with GSH, electrophile 0.5 mM
Procedure: Potassium efflux experiments were performed as described previously.[7] Potassium efflux was measured, using an ion selective potassium electrode (ELIT 8031, Nico2000) and a lithium acetate reference electrode (ELIT 003n) with a four-channel ion analyzer (ELIT4), in 2 s intervals. Freshly transformed cells [either E. coli MJF335 cells lacking KefB, KefC, and GshA or MJF645 cells (lacking KefF and KefG in addition to KefB, KefC, and GshA)] were cultured in K115 minimal medium, containing 1 mM GSH, at 37 °C to an OD650 of ∼0.8–1.[11] The cells were filtered and washed with K10 buffer before being suspended in 5 mL of potassium-free K0 buffer. The cells were added to 30 mL of K0 medium in a stirred vessel held at 37 °C with equilibrated electrodes inserted. After 5 min, the electrophile was added to a final concentration of 0.5 mM [except for methylglyoxal (MG), which was added at a concentration of 0.8 mM[6]]. Rate constants were obtained by fitting exponentials to the change in potassium concentration after addition of the electrophile using Origin version 8.0 (Originlab).[7]

SdKefQCTD [1] = target: T1, SdKefQCTD (Shewanella denitrificans, UniProt Q12SB3); assay: Direct titration of DNGSH, fluorescence emission peak position (λmax); format: binding, Shewanella denitrificans OS217
T1 sequence (Q12SB3 entry or part of it): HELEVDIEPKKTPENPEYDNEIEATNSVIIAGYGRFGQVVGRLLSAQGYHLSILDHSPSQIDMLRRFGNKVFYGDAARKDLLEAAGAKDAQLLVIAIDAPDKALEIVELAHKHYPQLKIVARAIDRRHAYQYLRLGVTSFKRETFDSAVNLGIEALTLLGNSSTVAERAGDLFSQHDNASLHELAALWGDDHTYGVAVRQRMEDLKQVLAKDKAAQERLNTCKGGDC
Procedure: (§1) Measurements were performed in buffer C, using a 100 μL cuvette with 3 mm excitation and emission path lengths (Hellma GmbH & Co.) at 20 °C and an Edinburgh Instruments FLS920 spectrometer. Samples containing SdKefQCTD and DNGSH were excited at 340 nm, and emission spectra were measured from 395 to 670 nm. The steady state fluorescence anisotropy was measured with excitation at 340 nm and emission between 540 and 560 nm. Competition experiments were performed using samples pretreated with excess DNGSH, at a 2× protein concentration, and titrated with the ligand under study.
The data were fit using a standard saturation isotherm (see the Supporting Information for further information). For DNGSH fluorescence, λL was measured directly and found to be 572.5 nm. Inverse titrations with high SdKefQCTD concentrations allowed a good estimation of the emission maximum for the bound form (λML) as 530 nm with a quantum yield (Q) of 4. These three parameters were kept fixed during the fitting while Kd and n were optimized. […]
(§2) Analysis of ligand binding by fluorescence spectroscopy. […]
(§3) The conservation of mass for SdKefQCTD is given by n[M]0 = [M] + [ML] where the total concentration of SdKefQCTD subunits is [M]0, n is the number of active binding sites per M, [L]0 is the total concentration of ligand and the concentration of free ligand is [L]. […] If these expressions are substituted into equation 1, a quadratic equation for the protein-ligand complex [ML] is obtained that can be solved for [ML] and expressed as the fraction of bound ligand, fB (equation 2). […]
Two fluorescence parameters were used to obtain fB from experimental data. The peak position in the emission spectrum, λmax, was obtained by fitting a skewed Gaussian to the experimental spectra as described earlier (1). λmax was used as it was less easily disturbed than fluorescence intensity. Secondly, steady state fluorescence anisotropy, robs, was used. […]
sums depending on the fluorescence intensity of the bound and free ligand, IML and […]

SdKefQCTD Q419K mutant = assay: DNGSH titration to Q419K mutant (background binding), emission peak; parameters: species or system Shewanella denitrificans OS217; conditions: titration of DNGSH to 7 μM SdKefQCTD Q419K
SdKefQCTD [2] = target: T1, SdKefQCTD; assay: Isothermal titration calorimetry (ITC); format: binding, Shewanella denitrificans OS217; conditions: for no. of sites (n): sites per subunit
SdKefQCTD [3] = target: T1, SdKefQCTD; assay: Steady state fluorescence anisotropy titration of DNGSH; format: binding, Shewanella denitrificans OS217
Procedure: as §1
The data were fit using a standard saturation isotherm (see the Supporting Information for further information). For DNGSH fluorescence, λL was measured directly and found to be 572.5 nm. […]
as §2, §3
Two fluorescence parameters were used to obtain fB from experimental data. […]

[4] = target: SdKefQCTD (soluble construct of the cytosolic regulatory domain of Kef from Shewanella denitrificans OS217, including the Q-linker) (Shewanella denitrificans OS217); assay: static multiangle light scattering; purified SdKefQCTD in solution; unpublished observations of the authors; 52.0 ± 2.5 kDa particles against 26.4 kDa per monomer
SdKefQCTD [5] = target: T1, SdKefQCTD; assay: Qualitative fluorescence competition assay with DNGSH (FB:FL ratio); format: binding, Shewanella denitrificans OS217; conditions: 1 mM competing ligand, 6 μM SdKefQCTD, 5 μM DNGSH, 525 nm
SdKefQCTD [6] = target: T1, SdKefQCTD; assay: Quantitative fluorescence competition experiment using DNGSH as probe (emission peak); format: binding, Shewanella denitrificans OS217; conditions: for no. of sites (n): competition with DNGSH, sites per subunit
SdKefQCTD [7] = target: T1, SdKefQCTD; assay: Differential scanning fluorimetry (DSF); format: binding, Shewanella denitrificans OS217; conditions: 1 mM ligand, relative to protein alone
[8] = ITC, 25 °C, one-site model, read-out: Kd
[9] = emission peak, competition with DNGSH (Kd 6 μM used for DNGSH)

Molecule: C=CC(=O)CCCCC [Compound 22, 1-octen-3-one]
- K+ efflux (activation of Kef) (SdKef): less effective at causing K^+ release; also recorded: causes little K^+ efflux

Molecule: O=C1C=CC(=O)N1C1CCCCC1 [Compound 17, N-cyclohexylmaleimide]
- K+ efflux (activation of Kef) (SdKef): causes rapid K^+ efflux

Molecule: CN(C)c1cccc2c(S(=O)(=O)NCCCSC[C@H](NC(=O)CC[C@H](N)C(=O)O)C(=O)NCC(=O)O)cccc12 [DNGSH, S-{[5-(dimethylamino)naphthalen-1-yl]sulfonylaminopropyl} glutathione]
- Kd (SdKefQCTD [1]): 6 ± 2 µM
- Hill coefficient (nH) (SdKefQCTD [1]; DNGSH binding): 1
- no. of sites (n) (SdKefQCTD [1]; emission peak, active binding sites per subunit): 0.6 ± 0.2
- binding to Q419K mutant (SdKefQCTD Q419K mutant): unable to bind
- Kd (SdKefQCTD [2]): 19 ± 6 µM
- no. of sites (n) (SdKefQCTD [2]; ITC): 0.7 ± 0.1 and 0.7 ± 0.2
- Kd (SdKefQCTD [3]): 8 ± 2 µM
- no. of sites (n) (SdKefQCTD [3]; fluorescence anisotropy, sites per subunit): 1.1 ± 0.8

- stoichiometry N [4]: 2 subunits
Molecule: SdKefQCTD (soluble construct of the cytosolic regulatory domain of Kef from Shewanella denitrificans OS217, including the Q-linker) (domain or fragment)

Molecule: N[C@@H](CCC(=O)N[C@@H](CSC1CCCC1=O)C(=O)NCC(=O)O)C(=O)O (stereo partly shown) [Compound 9]
- K+ efflux (activation of Kef) (SdKef): no activation of K^+ efflux
- DNGSHbound:DNGSHligand ratio of fluorescence (FB:FL), Kef binding (SdKefQCTD [5]): reduced binding affinity for Kef

- Kd (SdKefQCTD [2]; [8]): 23 ± 4 µM
- no. of sites (n) (SdKefQCTD [2]; ITC): 0.38 ± 0.05
- Kd (SdKefQCTD [6]; [9]): 12 ± 3 µM
- no. of sites (n) (SdKefQCTD [6]; emission peak): 0.7 ± 0.2
- DNGSHbound:DNGSHligand ratio of fluorescence (FB:FL), Kef binding (SdKefQCTD [5]): high FB:FL ratios
Molecule: CCN1C(=O)CC(SCC(NC(=O)CCC(N)C(=O)O)C(=O)NCC(=O)O)C1=O (stereo not shown) [ESG, N-ethylsuccinimido-S-glutathione, reference compound]

- change in protein melting temperature (ΔTm) (SdKefQCTD [7]): greatest ΔTm
- Kd (SdKefQCTD [2]; [8]): 6.7 ± 0.27 µM
- no. of sites (n) (SdKefQCTD [2]; ITC): 0.41 ± 0.04
- Kd (SdKefQCTD [6]; [9]): 0.4 ± 0.2 µM
- no. of sites (n) (SdKefQCTD [6]; emission peak): 0.7 ± 0.2
- DNGSHbound:DNGSHligand ratio of fluorescence (FB:FL), Kef binding (SdKefQCTD [5]): greatest Kef affinity
Molecule: CC(C)(C)N1C(=O)CC(SCC(NC(=O)CCC(N)C(=O)O)C(=O)NCC(=O)O)C1=O (stereo not shown) [Compound 5, N-tert-butylsuccinimido-S-glutathione]

Molecule: O=C1C=CC(=O)N1Cc1ccccc1 [Compound 16]
- K+ efflux (activation of Kef) (SdKef): caused significant K^+ release

Molecule: CCN1C(=O)C=CC1=O [NEM, N-ethylmaleimide]
- rate constant for K+ efflux (SdKef; SdKef expressed in E. coli strain lacking KefFC and KefGB (MJF645), after addition of electrophile): high rate constant for K^+ efflux

- Kd (SdKefQCTD [6]; [9]): 4.4 ± 0.5 µM
- no. of sites (n) (SdKefQCTD [6]; emission peak): 0.81 ± 0.05
Molecule: CCCCCC(=O)CCSC[C@H](NC(=O)CC[C@H](N)C(=O)O)C(=O)NCC(=O)O [Compound 12]

Molecule: N[C@@H](CCC(=O)N[C@@H](CS)C(=O)NCC(=O)O)C(=O)O [GSH, glutathione, reference compound]
- change in protein melting temperature (ΔTm) (SdKefQCTD [7]): negligible change
- ITC signal on titration (SdKefQCTD [2]; could not be analyzed, data not shown): Only small signals
- Kd (SdKefQCTD [6]): 900 ± 200 µM
- no. of sites (n) (SdKefQCTD [6]; emission peak): 0.83 ± 0.04
- DNGSHbound:DNGSHligand ratio of fluorescence (FB:FL), Kef binding (SdKefQCTD [5]): low FB:FL ratios

- DNGSHbound:DNGSHligand ratio of fluorescence (FB:FL), Kef binding (SdKefQCTD [5]): reduced binding affinity for Kef
Molecule: N[C@@H](CCC(=O)N[C@@H](CSC1CC(=O)CC1=O)C(=O)NCC(=O)O)C(=O)O (stereo partly shown) [Compound 8]

— publication PMC4004266, “Understanding the Structural Requirements for Activators of the Kef Bacterial Potassium Efflux System” (Biochemistry, 2014)
